pIC50: −log10 of the molar value.
What was measured:
Format in all cases: biochemical
PI3Kγ (p110γ) = PI3Kγ (p110γ) (Homo sapiens (Human), UniProt P48736); assay: cell-free PI3K HTRF assay, PI3Kγ; conditions: ratio of IC50 against PI3Kγ related to PI3Kδ; 10-dose, 3-fold serial dilution starting at 10 μM
Procedure: (§1) Exemplary compounds of the invention were tested for inhibitory activity and potency against class I PI3Ks (p110α/p85α, p110β/p85α, p110δ/p85α and p110γ) using a cell-free based PI3K HTRF assay. This assay was used to detect the formation of the product 3,4,5-inositol triphosphate molecule (PIP3) by displacement of biotin-PIP3 from an energy transfer complex consisting of Europium labeled anti-GST monoclonal antibody, a GST-tagged pleckstrin homology (PH) domain, biotinylated PIP3 and Streptavidin-Allophycocyanin (APC). Excitation of Europium in the complex results in an energy transfer to the APC and a fluorescent emission at 665 nm. The PIP3 product formed by human PI 3-Kinase activity displaces biotin-PIP3 from the complex resulting in a loss of energy transfer and thus a decrease in signal.
(§2) Human class I PI3K isoforms were co-expressed in a Baculovirus infected cell expression system. The PI3K isoforms were assayed in the presence of HEPES (50 mM, pH 7.0), NaN3 (0.02%), BSA (0.01%), orthovanadate (0.1 mM), and DMSO (1%). The exemplary compounds dissolved in DMSO were delivered into the kinase reaction mixture by Acoustic technology (Echo550; nanolitter range), and were pre-incubated for 10 min at room temperature before adding ATP (10 μM) to initiate the reaction. After 30 min at 30° C., the reactions were quenched with a stop solution, incubated overnight with a detection mixture before measuring HTRF (Ex: 320 nm; Em: 615/665 nm). The emission ratio is converted into μM PIP3 production based on PIP3 standard curves, and the nonlinear regression to obtain the standard curve and IC50 values are performed using Graphpad Prism software.
(§3) The assays were performed at Reaction Biology Corporation, One Great Valley Parkway, Suite 2, Malvern, Pa. 19355, USA.
(§4) Exemplary compounds of the invention selected were further tested their inhibitory activity or potency against PI3Kα, PI3Kβ, and PI3Kγ in 10-dose IC50 mode with 3-fold serial dilution starting at 10 μM. […] Table 5 below illustrates the selectivity of the exemplary compounds using the ratios of the IC50 values of the compounds against PI3Kα, PI3Kβ, and PI3Kγ related to PI3Kδ. […] Such unexpected selectivity against PI3Kδ and/or PI3Kγ is attributed to the unusual overall shape of the molecules of formula (I) and (II), and the optimal selection of R1, R2, R3, R4, X, and Y defined in formula (I) and (II) in order to bind favorably in the ATP-binding pocket of PI3Kδ and/or PI3Kγ versus other class I isozymes.

PI3Kδ (p110δ/p85α) = PI3Kδ (p110δ/p85α) (Homo sapiens (Human), UniProt O00329); assay: cell-free PI3K HTRF assay, PI3Kδ; conditions: for pIC50: 10-dose IC50 mode, 3-fold serial dilution starting at 1 μM, ATP 10 μM, read-out: IC50 value for the inhibition of PI3Kδ
Sequence of PI3Kδ (p110δ/p85α) (O00329 whole entry): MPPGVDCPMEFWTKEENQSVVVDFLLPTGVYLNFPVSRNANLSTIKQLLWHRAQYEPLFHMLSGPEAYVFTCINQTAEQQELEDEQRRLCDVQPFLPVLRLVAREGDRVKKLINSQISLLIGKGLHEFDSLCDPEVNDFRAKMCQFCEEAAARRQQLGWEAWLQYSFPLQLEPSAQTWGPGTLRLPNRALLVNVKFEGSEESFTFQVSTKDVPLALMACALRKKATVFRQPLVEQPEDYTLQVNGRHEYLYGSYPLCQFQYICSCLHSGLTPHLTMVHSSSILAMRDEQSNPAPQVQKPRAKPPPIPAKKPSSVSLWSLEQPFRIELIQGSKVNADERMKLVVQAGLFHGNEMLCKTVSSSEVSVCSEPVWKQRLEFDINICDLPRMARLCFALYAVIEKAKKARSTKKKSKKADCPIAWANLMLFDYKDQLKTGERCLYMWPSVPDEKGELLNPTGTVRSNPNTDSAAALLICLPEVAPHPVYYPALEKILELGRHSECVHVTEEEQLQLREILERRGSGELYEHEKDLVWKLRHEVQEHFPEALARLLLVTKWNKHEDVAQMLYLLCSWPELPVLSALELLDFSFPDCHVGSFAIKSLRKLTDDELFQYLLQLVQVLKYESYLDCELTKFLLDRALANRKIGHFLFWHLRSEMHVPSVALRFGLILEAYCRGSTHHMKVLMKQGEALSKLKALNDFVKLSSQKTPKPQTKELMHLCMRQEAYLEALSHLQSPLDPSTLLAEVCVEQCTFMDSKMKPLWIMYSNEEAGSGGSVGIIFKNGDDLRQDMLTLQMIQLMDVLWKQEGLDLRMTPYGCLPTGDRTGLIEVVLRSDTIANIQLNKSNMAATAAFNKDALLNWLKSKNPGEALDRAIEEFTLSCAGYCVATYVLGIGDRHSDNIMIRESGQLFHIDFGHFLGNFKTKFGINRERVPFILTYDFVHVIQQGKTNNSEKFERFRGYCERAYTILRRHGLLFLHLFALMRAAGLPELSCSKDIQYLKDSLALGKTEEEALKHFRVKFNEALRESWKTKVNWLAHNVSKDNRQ
Sequence of PI3Kδ (p110δ/p85α) (P27986 whole entry partner): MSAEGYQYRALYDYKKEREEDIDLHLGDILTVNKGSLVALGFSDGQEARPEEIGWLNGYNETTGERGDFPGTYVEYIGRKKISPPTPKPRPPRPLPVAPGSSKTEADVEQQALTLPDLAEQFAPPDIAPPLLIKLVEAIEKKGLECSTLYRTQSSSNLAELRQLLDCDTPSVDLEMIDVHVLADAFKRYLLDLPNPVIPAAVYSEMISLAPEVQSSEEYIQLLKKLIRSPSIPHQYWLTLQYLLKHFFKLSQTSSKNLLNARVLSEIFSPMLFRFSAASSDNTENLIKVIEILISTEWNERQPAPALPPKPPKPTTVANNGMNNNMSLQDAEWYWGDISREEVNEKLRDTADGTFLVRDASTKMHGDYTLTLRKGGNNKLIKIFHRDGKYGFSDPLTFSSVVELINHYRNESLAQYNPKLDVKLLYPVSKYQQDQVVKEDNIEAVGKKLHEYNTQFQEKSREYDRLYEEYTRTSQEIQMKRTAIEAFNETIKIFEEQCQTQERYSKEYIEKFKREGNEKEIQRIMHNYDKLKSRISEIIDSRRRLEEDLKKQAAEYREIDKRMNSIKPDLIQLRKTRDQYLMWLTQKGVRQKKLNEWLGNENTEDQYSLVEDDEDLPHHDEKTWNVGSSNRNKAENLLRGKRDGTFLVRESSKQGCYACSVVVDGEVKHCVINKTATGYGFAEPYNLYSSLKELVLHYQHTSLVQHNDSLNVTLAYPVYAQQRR

PI3Kβ (p110β/p85α) = PI3Kβ (p110β/p85α) (Homo sapiens (Human), UniProt P42338); assay: cell-free PI3K HTRF assay, PI3Kβ; conditions: ratio of IC50 against PI3Kβ related to PI3Kδ; 10-dose, 3-fold serial dilution starting at 10 μM
Sequence of PI3Kβ (p110β/p85α) (P42338 whole entry): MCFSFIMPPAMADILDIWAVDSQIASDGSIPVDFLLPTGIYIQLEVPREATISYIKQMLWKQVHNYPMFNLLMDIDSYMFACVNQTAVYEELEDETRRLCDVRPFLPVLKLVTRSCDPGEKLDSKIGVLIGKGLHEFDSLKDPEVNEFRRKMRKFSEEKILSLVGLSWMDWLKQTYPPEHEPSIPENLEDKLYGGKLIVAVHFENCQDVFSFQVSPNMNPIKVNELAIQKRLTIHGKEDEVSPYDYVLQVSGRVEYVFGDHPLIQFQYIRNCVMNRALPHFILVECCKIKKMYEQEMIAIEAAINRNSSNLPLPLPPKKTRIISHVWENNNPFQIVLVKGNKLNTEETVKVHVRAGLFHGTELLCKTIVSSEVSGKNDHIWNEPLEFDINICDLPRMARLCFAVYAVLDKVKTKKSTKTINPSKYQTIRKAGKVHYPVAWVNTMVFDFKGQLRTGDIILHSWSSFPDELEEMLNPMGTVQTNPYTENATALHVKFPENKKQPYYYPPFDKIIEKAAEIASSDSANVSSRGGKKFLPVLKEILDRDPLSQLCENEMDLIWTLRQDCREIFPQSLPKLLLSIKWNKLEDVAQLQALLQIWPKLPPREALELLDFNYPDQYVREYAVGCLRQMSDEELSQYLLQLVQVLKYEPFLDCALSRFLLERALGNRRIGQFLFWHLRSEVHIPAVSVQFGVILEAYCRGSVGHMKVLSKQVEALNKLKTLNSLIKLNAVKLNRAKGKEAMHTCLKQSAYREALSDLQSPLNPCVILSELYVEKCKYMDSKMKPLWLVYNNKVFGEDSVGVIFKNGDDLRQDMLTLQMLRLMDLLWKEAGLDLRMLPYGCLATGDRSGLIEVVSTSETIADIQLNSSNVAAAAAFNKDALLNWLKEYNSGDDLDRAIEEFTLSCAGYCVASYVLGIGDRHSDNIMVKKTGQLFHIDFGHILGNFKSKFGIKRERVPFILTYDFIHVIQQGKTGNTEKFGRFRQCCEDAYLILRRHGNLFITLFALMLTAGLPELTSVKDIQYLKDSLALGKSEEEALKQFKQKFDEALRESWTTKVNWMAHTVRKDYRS
Sequence of PI3Kβ (p110β/p85α) (P27986 whole entry partner): as the sequence (P27986 whole entry partner) above
Procedure: as §1, §2, §3, §4

PI3Kα (p110α/p85α) = PI3Kα (p110α/p85α) (Homo sapiens (Human), UniProt P42336); assay: cell-free PI3K HTRF assay, PI3Kα; conditions: ratio of IC50 against PI3Kα related to PI3Kδ; 10-dose, 3-fold serial dilution starting at 10 μM
Sequence of PI3Kα (p110α/p85α) (P42336 whole entry): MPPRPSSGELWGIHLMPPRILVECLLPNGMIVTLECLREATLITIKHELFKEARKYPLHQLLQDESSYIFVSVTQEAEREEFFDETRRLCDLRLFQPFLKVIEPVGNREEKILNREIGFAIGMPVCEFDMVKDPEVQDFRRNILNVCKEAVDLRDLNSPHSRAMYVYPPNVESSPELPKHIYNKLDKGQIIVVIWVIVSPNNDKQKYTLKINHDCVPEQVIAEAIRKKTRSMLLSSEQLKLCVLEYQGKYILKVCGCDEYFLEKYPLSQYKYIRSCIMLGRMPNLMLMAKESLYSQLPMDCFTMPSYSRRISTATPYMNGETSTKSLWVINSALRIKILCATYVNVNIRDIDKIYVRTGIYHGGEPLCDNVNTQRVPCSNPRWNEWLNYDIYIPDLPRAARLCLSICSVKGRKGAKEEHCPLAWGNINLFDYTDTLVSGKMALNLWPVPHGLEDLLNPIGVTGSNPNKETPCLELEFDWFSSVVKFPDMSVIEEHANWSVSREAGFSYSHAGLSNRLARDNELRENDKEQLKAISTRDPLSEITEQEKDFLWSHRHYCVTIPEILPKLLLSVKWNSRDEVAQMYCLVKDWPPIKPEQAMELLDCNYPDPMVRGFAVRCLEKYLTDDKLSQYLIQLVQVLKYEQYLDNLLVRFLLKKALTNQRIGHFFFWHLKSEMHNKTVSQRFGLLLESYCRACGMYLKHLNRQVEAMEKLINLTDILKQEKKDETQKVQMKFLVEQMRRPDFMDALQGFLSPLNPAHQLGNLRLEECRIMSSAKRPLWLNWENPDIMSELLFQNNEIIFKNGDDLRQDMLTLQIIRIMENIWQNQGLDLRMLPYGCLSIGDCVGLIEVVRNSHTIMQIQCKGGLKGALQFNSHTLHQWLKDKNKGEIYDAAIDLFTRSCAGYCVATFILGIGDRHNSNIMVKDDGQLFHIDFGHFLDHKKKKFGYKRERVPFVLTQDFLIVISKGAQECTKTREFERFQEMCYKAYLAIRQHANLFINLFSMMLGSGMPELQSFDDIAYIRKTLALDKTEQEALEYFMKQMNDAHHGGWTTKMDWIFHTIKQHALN
Sequence of PI3Kα (p110α/p85α) (P27986 whole entry partner): as the sequence (P27986 whole entry partner) above
Procedure: as §1, §2, §3, §4

Sequence of PI3Kγ (p110γ) (P48736 whole entry): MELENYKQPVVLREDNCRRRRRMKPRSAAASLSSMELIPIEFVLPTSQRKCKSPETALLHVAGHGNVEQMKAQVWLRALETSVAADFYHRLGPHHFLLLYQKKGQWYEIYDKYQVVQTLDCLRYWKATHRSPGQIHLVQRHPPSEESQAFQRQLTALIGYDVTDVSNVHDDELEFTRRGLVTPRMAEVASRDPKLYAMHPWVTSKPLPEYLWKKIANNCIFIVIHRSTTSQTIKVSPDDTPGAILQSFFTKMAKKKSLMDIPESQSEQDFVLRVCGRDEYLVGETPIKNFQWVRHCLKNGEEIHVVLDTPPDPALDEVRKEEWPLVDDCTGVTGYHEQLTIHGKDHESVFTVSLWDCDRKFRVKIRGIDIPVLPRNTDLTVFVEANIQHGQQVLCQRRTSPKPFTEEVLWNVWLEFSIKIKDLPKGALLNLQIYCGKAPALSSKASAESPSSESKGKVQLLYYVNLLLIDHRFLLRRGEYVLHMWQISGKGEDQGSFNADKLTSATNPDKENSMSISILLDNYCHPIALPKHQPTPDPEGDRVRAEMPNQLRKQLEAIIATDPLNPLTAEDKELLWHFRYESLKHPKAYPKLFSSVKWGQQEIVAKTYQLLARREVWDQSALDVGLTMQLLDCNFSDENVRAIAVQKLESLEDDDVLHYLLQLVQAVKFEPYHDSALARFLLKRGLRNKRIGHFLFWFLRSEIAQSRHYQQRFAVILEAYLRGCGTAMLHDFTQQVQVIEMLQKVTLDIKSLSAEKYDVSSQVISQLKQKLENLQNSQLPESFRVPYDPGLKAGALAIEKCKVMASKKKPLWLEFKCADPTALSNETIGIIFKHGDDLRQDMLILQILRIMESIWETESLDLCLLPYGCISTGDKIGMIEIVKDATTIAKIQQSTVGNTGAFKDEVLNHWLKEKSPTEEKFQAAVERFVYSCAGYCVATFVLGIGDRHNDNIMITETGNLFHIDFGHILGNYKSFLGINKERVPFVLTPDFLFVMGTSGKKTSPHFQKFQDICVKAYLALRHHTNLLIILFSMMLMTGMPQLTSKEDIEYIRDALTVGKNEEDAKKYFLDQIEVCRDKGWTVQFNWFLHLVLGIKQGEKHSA

| Structure (SMILES) | Ratio (γ/δ) (PI3Kγ (p110γ)) | pIC50 (PI3Kδ (p110δ/p85α)) | Ratio (β/δ) (PI3Kβ (p110β/p85α)) | Ratio (α/δ) (PI3Kα (p110α/p85α)) | potency or inhibition against PI3Kδ (in words) (PI3Kδ (p110δ/p85α); qualitative statement) |
| --- | --- | --- | --- | --- | --- |
| COc1ccccc1-c1nc2cc(F)ccc2cc1C1CCCN1c1ncnc2[nH]cnc12 (stereo not drawn) [Compound 25] | 5.1 | 7.85 | 297 | >694 | – |
| Fc1ccc2cc(C3CCCN3c3ncnc4[nH]cnc34)c(-c3cccc(OC(F)(F)F)c3)nc2c1 (stereo not drawn) [Compound 26] | 12 | 6.68 | 39.7 | 483 | – |
| N#Cc1c(N)nc(N)nc1N1CCCC1c1cc2ccc(F)cc2nc1-c1ccccc1 (stereo not drawn) [Compound 27] | >2.3 | > 10.30 | >2185 | >12756 | – |
| Nc1cc(N2CCCC2c2cc3ccc(F)cc3nc2-c2ccccc2)nc(N)n1 (stereo not drawn) [Compound 28] | – | < 6.00 | – | – | – |
| N#Cc1c(N)ncnc1N1CCCC1c1cc2ccc(F)cc2nc1-c1ccccc1 (stereo not drawn) [Compound 29] | 52.4 | 8.77 | 478 | 2170 | – |
| COc1cccc(-c2nc3cc(F)ccc3cc2C2CCCN2c2ncnc(N)c2C#N)c1 (stereo not drawn) [Compound 30] | 85 | 8.32 | 631 | 962 | – |
| Fc1ccc2cc(C3CC=CCN3c3ncnc4[nH]cnc34)c(-c3ccccc3)nc2c1 (stereo not drawn) [Compound 31, 3-(1-(9H-purin-6-yl)-1,2,3,6-tetrahydropyridin-2-yl)-7-fluoro-2-phenylquinoline] | 16 | 6.99 | >97 | – | – |
| Fc1ccc2cc(C3CCCCN3c3ncnc4[nH]cnc34)c(N3CCOCC3)nc2c1 (stereo not drawn) [Compound 38, 4-(3-(1-(9H-purin-6-yl)piperidin-2-yl)-7-fluoroquinolin-2-yl)morpholine] | 106 | 8.15 | 537 | 529 | – |
| Fc1ccc2cc(C3CCCCN3c3ncnc4[nH]cnc34)c(-c3ccccc3)nc2c1 (stereo not drawn) [Compound 41] | – | 6.62 | – | – | – |
| N#Cc1c(N)ncnc1N1CC=CCC1c1cc2ccc(F)cc2nc1-c1ccccc1 (stereo not drawn) [Compound 42] | 103 | 7.26 | >181 | – | – |
| Fc1ccc2cc(C3CC=CCN3c3ncnc4[nH]cnc34)c(N3CCOCC3)nc2c1 (stereo not drawn) [Compound 43] | 39 | 8.17 | 169 | 689 | – |
| N#Cc1c(N)ncnc1N1CC=CCC1c1cc2ccc(F)cc2nc1N1CCOCC1 (stereo not drawn) [Compound 44] | 152 | 8.21 | 297 | – | – |
| Fc1ccc2cc(C3CCCCCN3c3ncnc4[nH]cnc34)c(-c3ccccc3)nc2c1 (stereo not drawn) [Compound 45, 3-(1-(9H-purin-6-yl)azepan-2-yl)-7-fluoro-2-phenylquinoline] | – | < 6.00 | – | – | week potency or inhibition |
| Cc1cccc2cc([C@@H]3CCCN3c3nc(N)nc(N)c3C#N)c(-c3ccccc3)nc12 [Compound 54, (S)-2,4-diamino-6-(2-(8-methyl-2-phenylquinolin-3-yl)pyrrolidin-1-yl)pyrimidine-5-carbonitrile] | ~10 | > 10.30 | >1120 | >1801 | – |

From patent publication US9637488B2, “Heterocyclic compounds as inhibitors of class I PI3KS” (priority 2015, dated 2017)
